These are literature values, as cited in patent US20160051475A1, “Sustained Release Composition Comprising an Amine as Active Agent and a Salt of a Cyclic Organic Acid” (Upsher-Smith Laboratories, Inc., priority 2010, published 2016).

Regarding `CC(=O)Nc1ccc(O)cc1` [acetaminophen], the pKa is 9.7.

For orientation: pKa means the negative logarithm of the acid dissociation constant.
